Consider 86 molecules from ChEMBL document CHEMBL1157539, “Thousands of chemical starting points for antimalarial lead identification” (Nature, 2010).

SMILES strings stand for the structures.

In this experiment the test system is Plasmodium falciparum. In words: GSK_TCMDC: Inhibition of Plasmodium falciparum 3D7 in whole erythrocytes, using parasite LDH activity as an index of growth. In kind it is functional, organism-based. The settings on record: Plasmodium falciparum, 3D7.
`CCOc1c(CNCCCNc2cc(O)c3ccccc3n2)cc(I)cc1OC` returned an XC50 of 1170 nM. The same measure for `CCN1CCC(N(Cc2ccc(-c3ccc(C(F)(F)F)s3)cc2)C(=O)Cn2c(CCc3cccc(F)c3F)nc(=O)c3ccccc32)CC1`: 932 nM; for `CCN(CC)CCN(Cc1ccc(-c2ccc(C(F)(F)F)cc2)cc1)C(=O)Cn1c(SCc2ccc(F)cc2)cc(=O)c2ccccc21`: 752 nM; for `CCN(CC)CCN(Cc1ccc(-c2ccc(C(F)(F)F)cc2)cc1)C(=O)Cn1c(CCc2ccc(F)cc2)nc(=O)c2sccc21`: 670 nM.

`CCN(CC(C)O)C(=O)c1ccc(-c2ccc(-c3nc4cccc(C)c4[nH]3)cc2)cc1` (stereo unspecified) registered an XC50 of 840 nM.

`CN1CCc2cc(NS(=O)(=O)c3ccc(-c4ccc(Cl)s4)cc3)c(N3CCCCC3)cc2CC1` gave an XC50 of 727 nM. The same measure for `Cc1nc(C)c(-c2ccc(C(=O)c3ccccc3)cc2)c(O)c1Br`: 778 nM; for `O=C(CSc1ccc(Cl)cc1)NC1CCC(CN2CCC(c3c[nH]c4ccccc34)CC2)CC1` (stereo unspecified): 934 nM; for `N#Cc1ccc(N2CCN(Cc3ccc(-c4ccc(-c5nc6cc(C(F)(F)F)ccc6[nH]5)s4)cc3)CC2)nc1`: 814 nM. `COc1ccc(CNCc2ccc(-c3cccc(-c4nc5cccc(C)c5[nH]4)c3)cc2)cc1` showed an XC50 of 130 nM. The same measure for `COc1ccc(N2CCc3c(-c4cccc5cnccc45)cc(C)nc32)c(C)c1`: 655 nM; for `CCCCn1c(C)c(C(=O)OCC)c2cc(OC(C)=O)c(Br)cc21`: 625 nM.

In turn, `O=C(Nc1ccc(I)cc1)N1CCc2sccc2C1CN1CCCCC1` (stereo unspecified) had an XC50 of 1200 nM. `NC(=O)c1cccc(C(=O)Nc2cccc(-c3ccc(-c4nc5ccccc5[nH]4)s3)c2)c1` displayed an XC50 of 349 nM. Regarding `COc1ccc2c(-c3ccccc3)noc2c1`, the XC50 was determined as 241 nM. The same measure for `CC=Cc1cc(Cc2c[nH]c(=N)[nH]c2=N)cc(CCC)c1OC`: 783 nM. `COc1ccc2ccccc2c1CCCCN1CCN(CC(c2ccc(F)cc2)N2CCC2)CC1` (stereo unspecified) yielded an XC50 of 759 nM.

On to `CN1CCN(c2ccc(-c3nc4ccc(OCc5cc(Cl)cc(Cl)c5)c(C(N)=O)c4[nH]3)cc2)CC1`, for which the XC50 worked out at 657 nM. In turn, `Cc1cnc(C(=O)Nc2ccc(-c3cccc(-c4nc5ccccc5[nH]4)c3)cc2)cn1` had an XC50 of 833 nM. `CCc1ccc(-n2cc(C(=O)c3cc(Br)ccc3O)cc(C#N)c2=O)cc1` returned an XC50 of 797 nM. Take `C=C[C@H]1CN(CCCCCCC)CC[C@H]1CCNc1ccnc2ccc(OC)cc12`: the XC50 came to 61.8 nM. With `O=C(COc1ccccc1)N(Cc1ccc(-c2ccc(CNC3Cc4ccccc4C3)cc2)cc1)C1CCNCC1`, the XC50 was 1020 nM. Consider `CC(=O)c1ccc(NC(=O)C2c3ccccc3C(=O)N(CC(C)C)C2c2cccs2)cc1` (stereo unspecified), for which the XC50 is 1320 nM. The same measure for `O=C(/C=C/c1ccc(Cl)c(Cl)c1)NCCCCCN1CCCC(C(=O)Nc2ccc(Cl)c(Cl)c2)C1` (stereo unspecified): 785 nM. Molecule `CCN(CC)CCOC(=O)c1ccc(NC(=O)c2cc(-c3ccc(C)cc3)nc3ccccc23)cc1` yielded an XC50 of 779 nM. The molecule `CN(Cc1ccccc1)C1CCCN(c2cc(NC(=O)c3ccc(F)cc3)ccn2)C1` (stereo unspecified) yielded an XC50 of 988 nM. The molecule `Cc1cccc(OC2CCN(c3ncc(C(=O)NCCCN4CCCC4=O)cc3Cl)CC2)c1` gave an XC50 of 183 nM. The same measure for `CC(C)(CNCc1cc(Cl)cc(Cl)c1)c1nc(-c2ccnc(N)n2)c(-c2ccc(Cl)c(O)c2)[nH]1`: 1010 nM; for `Cc1nc2nc(N)nc(N)c2c(C)c1Cc1ccc(C#N)cc1`: 542 nM; for `O=c1cc(NCCCNCc2cc3ccc(Br)cc3s2)[nH]c2ccccc12`: 990 nM. `Nc1ccc2[nH]cc(C3CCN(CC4CCC(NC(=O)/C=C/c5ccccc5Cl)CC4)CC3)c2n1` (stereo unspecified) showed an XC50 of 688 nM.

In the case of `COc1ccc(OC)c(C(O)C(C)NCc2cc(Cl)ccc2O)c1` (stereo unspecified), the XC50 was determined as 382 nM. `CCNc1cc(C)nc(Nc2ccc(NC(=O)c3ccccc3Cl)cc2)n1` returned an XC50 of 1010 nM.

Consider `CN1CCC(C(=O)Nc2cccc(-c3ccc(-c4nc5ccccc5[nH]4)cc3)c2)CC1`, for which the XC50 worked out at 1090 nM. The molecule `Cc1c(-c2cccc(CNCCc3ccc(Cl)cc3)c2)cnc(N)c1C` displayed an XC50 of 1040 nM.

Consider `COc1cc(C)nc2ccc(NC(=O)Nc3cccc4ccccc34)cc12`, for which the XC50 is 878 nM. For the molecule `COc1ccc(NC(=O)c2ccc(OCCCCCCCOc3ccc(C(=O)Nc4ccc(OC)c(N5CCN(C)CC5)c4)cc3)cc2)cc1N1CCN(C)CC1`, the XC50 stood at 598 nM. In the case of `Nc1cc2c(C3CCN(CC4CCN(C(=O)/C=C/c5ccc(Cl)c(Cl)c5)CC4)CC3)c[nH]c2cn1`, the XC50 stood at 975 nM. In turn, `Oc1cccc(Nc2ccnc3cc(-c4ccccn4)ccc23)c1` gave an XC50 of 744 nM.

`Nc1nonc1-c1nc2c(-c3cccc(Cl)c3)nccc2n1CCCNC(=O)Cc1ccc(Cl)cc1` had an XC50 of 268 nM.

With `Cc1noc(C)c1-c1cccc(CNCc2cccc(-c3csc(-c4nc5ccccc5[nH]4)c3)c2)c1`, the XC50 came out at 263 nM.

As to `O=C(Nc1ccc(Cn2ncc(N3CCCNCC3)c(Cl)c2=O)cc1)Nc1ccc(OCc2ccccc2)cc1`, the XC50 was 822 nM. The same measure for `O=c1cc(NCCCNCc2cc(F)cc(C(F)(F)F)c2)[nH]c2ccccc12`: 1200 nM; for `CC(Nc1ncc(-c2ccsc2)c(-c2nccs2)n1)c1ccc2c(c1)OCCO2` (stereo unspecified): 175 nM. Take `CC(=O)Nc1ccc(C(=O)Nc2cccc(-c3cccc(-c4nc5ccccc5[nH]4)c3)c2)cn1`: the XC50 came out at 204 nM.

`Clc1ccc(CNc2ccnc(NCc3cccnc3N3CCCC3)n2)c(Cl)c1` registered an XC50 of 1170 nM. The same measure for `O=C(NOCCCCOc1ccc(Cl)c(Cl)c1)c1ccccc1`: 183 nM; for `CCc1ccc(CN2CCC(CNC(=O)c3cc(-c4cccc(F)c4)cs3)C2)cc1` (stereo unspecified): 1360 nM.

For `CN1CCN(c2ccc(-c3cc(-c4cc(F)c(F)c(F)c4)cnc3N)cc2)CC1`, the XC50 amounted to 1010 nM.

Molecule `COc1ccc(NC(=O)/C=C/c2ccccc2Cl)cc1OCCN1CCC(O)(c2ccc(Cl)c(C(F)(F)F)c2)CC1` displayed an XC50 of 637 nM. The same measure for `CCCOC(=O)c1ccc(OCCCON2C(=N)N=C(N)NC2(C)C)cc1`: 3.2 nM; for `CN(CCCCCNC(=O)/C=C/c1ccc(Cl)c(Cl)c1)CCCCc1c[nH]c2ccccc12`: 1080 nM; for `O=C(Nc1ccccc1)Nc1cccc(-c2nn3c(OCCN4CCCC4)cccc3c2-c2ccncc2)c1`: 404 nM. The same measure for `CN(CCN1CCC(c2c[nH]c3ccccc23)CC1)c1ccc(-c2nc3cc(Cl)c(Cl)cc3[nH]2)cc1`: 119 nM.

On to `CCOC(=O)c1ccc(NC(=O)N(Cc2ccc(-c3ccc(CN4CCNCC4)cc3)cc2)Cc2cccnc2)cc1`, for which the XC50 amounted to 926 nM.

Consider `FC(F)(F)c1ccc2[nH]c(-c3cccc(-c4ccc(CNCCc5ccncc5)cc4)c3)nc2c1`, for which the XC50 amounted to 98.9 nM. For `Cc1cc(=NN=Cc2ccc(Cl)cc2)c2cccc(C)c2[nH]1`, the XC50 worked out at 723 nM. Molecule `CCOc1ccc(-c2nonc2NC(=O)c2cccc(Cl)c2)cc1OCC` showed an XC50 of 147 nM.

Take `COc1ccc(CNC2Cc3ccccc3C2)cc1-c1ccc(OC)c(S(=O)(=O)NCCN2CCCC2)c1`: the XC50 was 773 nM. Molecule `COC(=O)c1cc2cccc(NC[C@@H](C)NC[C@H](O)c3cccc(Cl)c3)c2[nH]1` had an XC50 of 631 nM.

`CC(C)Cc1c(O)nc(SCCN2CCOCC2)[nH]c1=O` gave an XC50 of 1260 nM. The same measure for `Cc1cc(N[C@@H](Cc2ccccc2)C(=O)Nc2ccccc2)nc(NCCN2CCCC2)n1`: 1810 nM; for `N#Cc1ccc(-c2ccc(C(=O)NC3CCN(CCN4CCC(c5cn(CCO)c6ccccc56)CC4)CC3)cc2)cc1`: 758 nM.

For the molecule `COc1ccc2nccc(N3CCC(CCNCc4ccc5c(n4)NC(=O)CS5)CC3)c2n1`, the XC50 was found to be 227 nM. In turn, `Cc1nc(-c2nc(N3CCOCC3)ncc2-c2ccsc2)sc1C` returned an XC50 of 315 nM. Regarding `O=C(Nc1ccc(-c2ccccc2)cc1)Nc1cccc(Cn2ncc(N3CCCNCC3)c(Cl)c2=O)c1`, the XC50 was 225 nM. The molecule `COc1ccc2nc(C)cc(Nc3ccc(N4CCN(C)CC4)cc3)c2c1` came in with an XC50 of 788 nM. Molecule `CC(C)(C)c1ccc(-c2nnc(N)nc2N)cc1` showed an XC50 of 862 nM. Regarding `COc1ccc(Br)cc1/C=C/C(=O)Nc1ccc2c(c1)CCCN(C)C2`, the XC50 was found to be 1560 nM. `CCNc1cc(C(=O)N[C@@H](Cc2ccccc2)[C@H](O)CN[C@@H](C)c2cccc(OC)c2)cc(N2CCCC2=O)c1` yielded an XC50 of 769 nM. In turn, `Cc1cc(=O)c(-c2ccc(Oc3cccc(OC(F)(F)F)c3)cc2)c(C)[nH]1` came in with an XC50 of 202 nM. The same measure for `Cn1c(NC(=O)C2CCCN(C(=O)c3ccc(O)c(-c4ccc(Cl)c(Cl)c4)c3)C2)nc2ccccc21` (stereo unspecified): 751 nM; for `CCN(CCC1(c2ccc(Cl)c(Cl)c2)CN(C(=O)c2cc(OC)c(OC)c(OC)c2)CCO1)C1CC2c3ccccc3CC21` (stereo unspecified): 426 nM; for `CN(C)CCNCc1ccc(-c2cccc(-c3nc4ccccc4[nH]3)c2)cc1`: 717 nM.

`Cc1cccc2nc(-c3cccc(-c4cccc(NC(=O)c5cccnc5Cl)c4)c3)[nH]c12`: the XC50 came out at 707 nM.

For `COc1ccc(CNCc2ccc(-c3ccc(-c4nc5ccccc5[nH]4)cc3)cc2)cc1`, the XC50 worked out at 241 nM. With `Cc1ccc(F)cc1S(=O)(=O)Nc1cccc(CCN2CCC(N3CCCCC3)CC2)c1`, the XC50 turned out to be 1120 nM. `COc1cc(N)cc2sc(N)nc12` returned an XC50 of 251 nM. Molecule `CC(=O)Nc1cccc(Nc2nccc(-c3c(-c4cccc(NC(=O)c5c(F)cccc5F)c4)nn4ncccc34)n2)c1` returned an XC50 of 184 nM.

The molecule `O=C(Nc1cc(=O)[nH]c2nc(-c3ccccc3)nn12)C1CCCCC1` had an XC50 of 416 nM. Molecule `CC(C)C(C(=O)n1cc2c(ccc3nc(N)nc(N)c32)n1)C(C)C` showed an XC50 of 790 nM. As for `O=S(=O)(c1cccc(Cl)c1F)N(CCC(O)(C(F)(F)F)C(F)(F)F)Cc1cccc(O)c1`, the XC50 was 918 nM.

`O=c1cc(NCC2(CNCc3cn(Cc4ccccc4)c4ccccc34)CCCCC2)[nH]c2ccccc12` displayed an XC50 of 684 nM. With `COc1ccccc1NC(=O)Nc1cccc(-c2cccc(-c3nc4cccc(C)c4[nH]3)c2)c1`, the XC50 came out at 95.7 nM.

`Oc1cc(-c2nc(-c3ccccc3)[nH]c2-c2ccncc2)ccc1Cl` yielded an XC50 of 814 nM. The same measure for `O=C(Nc1ccc(-c2cccc(-c3nc4ccccc4[nH]3)c2)cc1)c1cnn2cccnc12`: 597 nM.
